The results in this text go back to patent US20240196898A1, “INSANITARY INSECT PEST CONTROL METHOD USING CONDENSED HETEROCYCLIC COMPOUND” (SUMITOMO CHEMICAL COMPANY, LIMITED, priority 2021, published 2024).

Holding throughout (assay type): in vivo
In experiment [1] the test system is Formosan subterranean worker termites (Coptotermes formosanus). Nature of the experiment: Test Example 4: treated filter paper contact test, 1 hour exposure, Formosan subterranean worker termites. The settings on record: Coptotermes formosanus workers, after 3 days, read-out: Moribund and mortal rates (%) after 3 days; for mortality at 300 mg/m2: 300 mg/m^2 treated per area; for mortality at 500 mg/m2: 500 mg/m^2 treated per area; for mortality at 1000 mg/m2: 1,000 mg/m^2 treated per area. As to the method: 0.6 mL of an acetone solution containing prescribed amount of the present compound A, the present compound B, comparative compound 1, comparative compound 2, comparative compound 3, or comparative compound 4 was added dropwise on a filter paper having a diameter of 82 mm, followed by air drying. The filter paper was attached to a plastic petri dish having a diameter of 90 mm without gaps by adding dropwise 1.4 mL of water, and then Formosan subterranean worker termites (Coptotermes formosanus) were released and the vial was sealed with a lid, followed by exposure for 1 hours. After exposure for 1 hour, Formosan subterranean worker termites were transferred to a new plastic cup with bottom lined with the filter paper, followed by feeding water. After 3 days, the number of dead and moribund individuals of Formosan subterranean worker termites was examined, and moribund and mortal rates (%) were determined by the equation 4 below. Dead individuals are completely immobile individuals, and moribund individuals are individuals who are flightless and non-ambulatory.
Moribund and mortal rates (%)={(number of dead individuals+number of moribund individuals)/number of tested individuals}×100 (Equation 4)
The amount to be treated per area was set at 1,000, 500 and 300 mg/m^2.

For experiment [2], the system named is little red worker ants (Monomorium pharaonis). Nature of the experiment: Test Example 3: vial inner-wall contact test, 1 hour exposure, little red worker ants. The settings on record: Monomorium pharaonis workers, after 1 day, read-out: Moribund and mortal rates (%) after 1 day; for mortality at 5 mg/m2: 5 mg/m^2 treated per area; for mortality at 100 mg/m2: 100 mg/m^2 treated per area; for mortality at 300 mg/m2: 300 mg/m^2 treated per area. As to the method: (§1) In a 20 mL volume vial, 0.2 mL of an acetone solution (containing 0.09% of a surfactant added therein) which contains prescribed amount of the present compound A, the present compound B, comparative compound 1, comparative compound 2, comparative compound 3, or comparative compound 4 was added dropwise and the inner wall of the vial was coated homogeneously with the chemicals and then air-dried. Thereafter, little red worker ants (Monomorium pharaonis) were released and the vial was sealed with a lid. After 1 hour, little red worker ants in the vial were transferred to a new plastic cup, followed by feeding 38 sucrose water. After 1 day, the number of dead and moribund individuals was examined, and moribund and mortal rates (%) were determined by the equation 3 below. Dead individuals are completely immobile individuals, and moribund individuals are individuals who cannot get up when turned on their backs, and are non-ambulatory.
Moribund and mortal rates (%)={(number of dead individuals+number of moribund individuals)/number of tested individuals}×100 (Equation 3)
The amount to be treated per area was set at 300, 100 and 5 mg/m^2.

The subject of experiment [3] is German cockroaches (Blattella germanica). Nature of the experiment: Test Example 1: vial inner-wall residual contact test, German cockroaches. The settings on record: German cockroach, read-out: Moribund and mortal rates (%); for mortality at 5 mg/m2: 5 mg/m^2 treated per area; for mortality at 50 mg/m2: 50 mg/m^2 treated per area; for mortality at 150 mg/m2: 150 mg/m^2 treated per area; for mortality at 300 mg/m2: 300 mg/m^2 treated per area; for mortality at 1000 mg/m2: 1,000 mg/m^2 treated per area. As to the method:
as §1, with “five German cockroaches (Blattella germanica)” for “little red worker ants (Monomorium pharaonis)”, “After 1 hour, little red worker ants in the vial were transferred to a new plastic cup, followed by feeding 38 sucrose water. After 1 day, the number of dead and moribund individuals was examined, and moribund and mortal rates (%) were determined by the equation 3 below.” left out
Moribund and mortal rates (%)={(number of dead individuals+number of moribund individuals)/number of tested individuals}×100 (Equation 1)
The amount to be treated per area was set at 1000, 300, 150, 50 and 5 mg/m^2.

Experiment [4] has as its system African malaria mosquitos (Anopheles gambiae). The experiment is described as follows: Test Example 2: vial inner-wall contact test, 50 minutes exposure, female adult African malaria mosquitos. The settings on record: Anopheles gambiae female adults, after 4 days, read-out: Moribund and mortal rates (%) after 4 days; for mortality at 5 mg/m2: 5 mg/m^2 treated per area; for mortality at 10 mg/m2: 10 mg/m^2 treated per area; for mortality at 300 mg/m2: 300 mg/m^2 treated per area. As to the method:
In a 250 mL volume vial, 1.0 mL of an acetone solution (containing 0.09% of a surfactant added therein) which contains prescribed amount of the present compound A, the present compound B, comparative compound 1, comparative compound 2, comparative compound 3, or comparative compound 4 was added dropwise and the inner wall of the vial was coated homogeneously with the chemicals and then air-dried. Thereafter, female adult African malaria mosquitos (Anopheles gambiae) were released and the vial was sealed with a lid, followed by exposure for 50 minutes. 50 Minutes after exposure, African malaria mosquitos were transferred to a new plastic cup, followed by feeding sugar water. After 4 days, the number of dead and moribund individuals of African malaria mosquitos was examined, and moribund and mortal rates (%) were determined by the equation 2 below. Dead individuals are completely immobile individuals, and moribund individuals are individuals who are flightless and non-ambulatory.
Moribund and mortal rates (%)={(number of dead individuals+number of moribund individuals)/number of tested individuals}×100 (Equation 2)
The amount to be treated per area was set at 300, 10 and 5 mg/m^2.

Turning to `CCS(=O)(=O)c1cc(C2CC2)cnc1-c1nc2cc([S+]([O-])C(F)(F)F)ccc2o1` (stereo not drawn) [Present compound A], in experiment [1], the mortality at 300 mg/m2 was found to be 100%, the mortality at 500 mg/m2 came out at 100% and the mortality at 1000 mg/m2 was found to be 100%. For the same compound, in experiment [2], the mortality at 5 mg/m2 turned out to be 100%, the mortality at 100 mg/m2 turned out to be 100% and the mortality at 300 mg/m2 came to 100%. Besides, in experiment [3], the mortality at 5 mg/m2 is 100%, the mortality at 50 mg/m2 stood at 100%, the mortality at 150 mg/m2 worked out at 100% and the mortality at 300 mg/m2 is 100%. Besides, in experiment [3], the mortality at 1000 mg/m2 was 100%. In experiment [4], the mortality at 5 mg/m2 stood at 100%, the mortality at 10 mg/m2 stood at 100% and the mortality at 300 mg/m2 worked out at 100%.
Take `CCS(=O)(=O)c1cc(C)cnc1-c1nc2cc(S(=O)(=O)C(F)(F)F)ccc2o1` [Comparative compound 4]: in experiment [1], the mortality at 300 mg/m2 came out at 10%, the mortality at 500 mg/m2 came out at 10% and the mortality at 1000 mg/m2 is 100%. Further, in experiment [2], the mortality at 5 mg/m2 stood at 10%, the mortality at 100 mg/m2 is 20% and the mortality at 300 mg/m2 worked out at 100%. For the same compound, in experiment [3], the mortality at 5 mg/m2 came out at 10%, the mortality at 50 mg/m2 was found to be 10%, the mortality at 150 mg/m2 was 20% and the mortality at 300 mg/m2 stood at 30%. In addition, in experiment [3], the mortality at 1000 mg/m2 is 100%. Besides, in experiment [4], the mortality at 5 mg/m2 came to 8%, the mortality at 10 mg/m2 came to 15% and the mortality at 300 mg/m2 worked out at 26%.
Regarding `CCS(=O)(=O)c1cc(C2CC2)cnc1-c1nc2cc(S(=O)(=O)C(F)(F)F)ccc2o1` [Present compound B], in experiment [1], the mortality at 300 mg/m2 worked out at 100%, the mortality at 500 mg/m2 came out at 100% and the mortality at 1000 mg/m2 came to 100%. In addition, in experiment [2], the mortality at 5 mg/m2 was determined as 100%, the mortality at 100 mg/m2 came out at 100% and the mortality at 300 mg/m2 is 100%. In addition, in experiment [3], the mortality at 5 mg/m2 was found to be 100%, the mortality at 50 mg/m2 worked out at 100%, the mortality at 150 mg/m2 stood at 100% and the mortality at 300 mg/m2 is 100%. Besides, the mortality at 1000 mg/m2 in experiment [3] came to 100%. Also, in experiment [4], the mortality at 5 mg/m2 was determined as 100%, the mortality at 10 mg/m2 is 100% and the mortality at 300 mg/m2 stood at 100%.
In the case of `CCS(=O)(=O)c1cc(C)cnc1-c1nc2cc([S+]([O-])C(F)(F)F)ccc2o1` (stereo not drawn) [Comparative compound 3], in experiment [1], the mortality at 300 mg/m2 worked out at 10%, the mortality at 500 mg/m2 was determined as 10% and the mortality at 1000 mg/m2 came to 100%. Also, in experiment [2], the mortality at 5 mg/m2 is 10%, the mortality at 100 mg/m2 was determined as 30% and the mortality at 300 mg/m2 is 100%. In experiment [3], the mortality at 5 mg/m2 worked out at 10%, the mortality at 50 mg/m2 was 30%, the mortality at 150 mg/m2 was 30% and the mortality at 300 mg/m2 was 40%. The mortality at 1000 mg/m2 in experiment [3] was 100%. Besides, in experiment [4], the mortality at 5 mg/m2 worked out at 6%, the mortality at 10 mg/m2 stood at 7% and the mortality at 300 mg/m2 is 35%.
Consider `CCS(=O)(=O)c1cc(C(F)(F)F)cnc1-c1nc2cc(S(=O)(=O)C(F)(F)F)ccc2o1` [Comparative compound 2], for which, in experiment [1], the mortality at 300 mg/m2 amounted to 10%, the mortality at 500 mg/m2 was 20% and the mortality at 1000 mg/m2 was determined as 100%. Also, in experiment [2], the mortality at 5 mg/m2 worked out at 20%, the mortality at 100 mg/m2 amounted to 50% and the mortality at 300 mg/m2 turned out to be 100%. Further, in experiment [3], the mortality at 5 mg/m2 was determined as 10%, the mortality at 50 mg/m2 worked out at 10%, the mortality at 150 mg/m2 turned out to be 20% and the mortality at 300 mg/m2 was determined as 50%. Further, the mortality at 1000 mg/m2 in experiment [3] came out at 100%. Further, in experiment [4], the mortality at 5 mg/m2 amounted to 8%, the mortality at 10 mg/m2 was 13% and the mortality at 300 mg/m2 was 15%.
Regarding `CCS(=O)(=O)c1cc(C(F)(F)F)cnc1-c1nc2cc([S+]([O-])C(F)(F)F)ccc2o1` (stereo not drawn) [Comparative compound 1], in experiment [1], the mortality at 300 mg/m2 was 10%, the mortality at 500 mg/m2 is 30% and the mortality at 1000 mg/m2 was 100%. In addition, in experiment [2], the mortality at 5 mg/m2 worked out at 30%, the mortality at 100 mg/m2 was found to be 40% and the mortality at 300 mg/m2 turned out to be 100%. Besides, in experiment [3], the mortality at 5 mg/m2 was 10%, the mortality at 50 mg/m2 came out at 30%, the mortality at 150 mg/m2 amounted to 50% and the mortality at 300 mg/m2 was determined as 50%. Moreover, the mortality at 1000 mg/m2 in experiment [3] was determined as 100%. For the same compound, in experiment [4], the mortality at 5 mg/m2 amounted to 3%, the mortality at 10 mg/m2 came to 43% and the mortality at 300 mg/m2 turned out to be 53%.
